Assay results as given in patent US9849102B2, “Treatment for reducing inflammation” (ISIFER AB, priority 2010, dated 2017).
Entries after “also recorded” stand apart in the source; their conditions may differ.

Key:
Assay type in all cases: cell-based, human
TNF-α = experiment: ELISA of TNF-α production from endometriosis cells incubated with lidocaine
Protocol: (§1) During laparotomy, human endometriosis tissue biopsies from endometriosis cysts were obtained from four women during laparotomy. The tissue samples were handled aseptically, transported to the laboratory and frozen in fluid nitrogen to −150° C. The biopsies were later verified histologically as endometriosis tissue. The sampling procedure was approved by the Ethical Committee. The frozen endometriosis tissues were thawed in water at +37° C. and then transferred to test tubes. Two tissue biopsy samples were taken from each endometrioma and prepared as follows: the endometriosis tissue covering the inside of endometriosis cysts was detached from encapsulating fibrous tissue by gentle scraping with a knife. The tissue was then exposed for 0.2% collagenase Type III (Worthington Biochemical Corporation Freehold, N.J., USA) for 2 h. The cell suspension was then centrifuged at 1500 rpm for 10 min. The cells were re-suspended in RPMI 1640 cell culture medium with L-glutamine and phenol red (Invitrogen Ltd), 20% Foetal Bovine serum (Invitrogen Ltd), sodium pyruvate, MEM 100 mM (Invitrogen Ltd), non-essential amino acids (Invitrogen Ltd), heparin 90 μg/ml (Sigma-Aldrich Fine Chemicals St Louis, Mo., USA), penicillin-streptomycin with 10.000 Units/ml penicillin G sodium and 10.000 μg/ml streptomycin sulphate in 0.85% saline (Invitrogen Ltd), Hepes buffer solution 1M (Invitrogen Ltd) and seeded in T-75 cm^2 cell culture flasks (Nunc, Roskilde, Denmark) pre-coated with 0.2% gelatin (Sigma-Aldrich). The culture medium was changed the following day and thereafter once a week. When confluent monolayers were obtained after 3 weeks, the cultures were tryptinized cultures from passages 4 and 6 were frozen in fluid nitrogen to −150° C. and later used for experiments.
(§2) The lidocaine treatments of the cells were performed in duplicates on the endometriosis cells that were used for experiments. […] The production of MCP-1, TNF-α and […] was measured according to the manufacturer's using an enzyme-linked immunosorbent assay (ELISA, Quantikine, R&D Systems, Minneapolis, Minn. 55413, USA).

MCP-1 = experiment: ELISA of MCP-1 production from endometriosis cells incubated with lidocaine
Protocol: as §1, §2

IL-1β = experiment: ELISA of IL-1β in cell medium of endometriosis cells incubated with lidocaine
Protocol: as §1, §2

[1] = incubation with lidocaine 1 mg/ml, 24 and 48 h, versus control

CCN(CC)CC(=O)Nc1c(C)cccc1C [Lidocaine]
TNF-α in Lidocaine medium 24 h (TNF-α; human endometriosis cell culture medium, lidocaine hydrochloride 1 mg/ml, 24 h, control medium 24 h 8.2): 9.4 pg/mL
TNF-α in Lidocaine medium 48 h (TNF-α; human endometriosis cell culture medium, lidocaine hydrochloride 1 mg/ml, 48 h, control medium 48 h 10.5): 10.0 pg/mL
production of TNF-α from endometriosis cells (in words) (TNF-α; [1]): unaffected
MCP-1 in Lidocaine medium 24 h (MCP-1; human endometriosis cell culture medium, lidocaine hydrochloride 1 mg/ml, 24 h, control medium 24 h 145.0): 62.0 pg/mL
MCP-1 in Lidocaine medium 48 h (MCP-1; human endometriosis cell culture medium, lidocaine hydrochloride 1 mg/ml, 48 h, control medium 48 h 315.0): 122.0 pg/mL
MCP-1 production from endometriosis cells (in words) (MCP-1; [1]): substantial reduction; also recorded: seems to be reduced
concentration of IL-1β in the cell medium (in words) (IL-1β; before and after incubation with lidocaine): at a low level
IL-1β in Lidocaine medium 24 h (IL-1β; human endometriosis cell culture medium, lidocaine hydrochloride 1 mg/ml, 24 h, control medium 24 h <5.00): <5.00 pg/mL
IL-1β in Lidocaine medium 48 h (IL-1β; human endometriosis cell culture medium, lidocaine hydrochloride 1 mg/ml, 48 h, control medium 48 h <5.00): <5.00 pg/mL
